US20250085285A1, “Methods for Generating Biologically Specific Chromatin Condensates and Uses Thereof” (The Regents of the University of California, priority 2022, published 2025)

What follows are compounds tested against T1, HP1α-chromatin condensates (Homo sapiens, UniProt P45973) (assay: HP1α-chromatin condensate in vitro droplet assay / screening (fluorescence imaging)). Settings: FIG. 6; interaction partner added to HP1α-chromatin condensates.
T1 construct: 6x-His (cleaved yes); made in house; host or cells: E. coli Rosetta BL21 (DE3)
Assay type: biochemical
Method: HP1α was diluted to the desired 2× concentration. HP1αKCK was added to HP1α at a ratio of 1:500 HP1α: HP1αKCK for evident fluorescent signal. HP1α-chromatin droplets were formed at 40 nM nucleosome array concentration in 20 mM HEPES pH 7.5, 0.1 mM EDTA and 2× HP1α-HP1αKCK in 20 mM HEPES pH 7.2, 150 mM KCl 1 mM DTT. 10 μL of 80 nM nucleosome arrays (2×) was mixed with 10 μl 2× HP1α-HP1αKCK and incubated at room temperature for 20 minutes before transferring to a glass bottom 384 well plate for imaging.
384 well glass bottom plates (Greiner Sensoplate 781892) were prepared for sample examination as follows: The wells were rinsed three times with 100 μl water, incubated with 100 μl of 2% Hellmanex for 30 mins-1 hour, rinsed with water three times again, incubated with 100 μl of 0.5M NaOH for 30 mins, rinsed with water three times, and then 70 μl of 20 mg/ml mPEG-silane dissolved in 95% EtOH was added to coat the wells. The plate was covered with foil and left overnight at 4° C.
After the overnight, the wells were rinsed with 95% EtOH five times, followed by incubation with 100 mg/ml BSA for 2 hours. Then, the wells were rinsed three times with water and three times with 1× phasing buffer afterwards (20 mM HEPES pH 7.2, 75 mM KCl, 0.05 mM EDTA, 0.5 mM DTT). After, the condensates are added to each well.
To conduct droplet assays at scale, arrays assembled with 540 μg fluorescently labeled array DNA and 1.3 mg of fluorescently labeled HP1α were needed for one 384 well plate. 384 well plates were washed and coated in mPEG-silane in bulk using the Biotek EL406 washer dispenser. HP1α-array droplets were screened against a Bioactive compound library (Selleck Chemicals). These compounds were diluted in 1× phasing buffer (20 mM HEPES pH 7.2, 75 mM KCl, 0.05 mM EDTA, 0.5 mM DTT), and added to the wells for a final concentration of 10 μM in the reaction. The droplets and compounds were dispensed in the 384 wells using the Biomek-FX.
After 3-4 hours of settling to the bottom of the plate, the condensates were imaged on the IN Cell Analyzer 6500HS equipped with a Nikon Plan Apo 40×/0.95NA objective and sCMOS camera. Five field of views per channel were taken per well. Image analysis was conducted using a custom pipeline written in Python using NumPy and SciPy SciKit libraries. Classical image segmentation and quantification techniques were implemented to identify droplets and characterize their geometry, fluorescent intensity, and consequently the effectiveness of the small molecules on the droplets.

T1 sequence (P45973 whole entry): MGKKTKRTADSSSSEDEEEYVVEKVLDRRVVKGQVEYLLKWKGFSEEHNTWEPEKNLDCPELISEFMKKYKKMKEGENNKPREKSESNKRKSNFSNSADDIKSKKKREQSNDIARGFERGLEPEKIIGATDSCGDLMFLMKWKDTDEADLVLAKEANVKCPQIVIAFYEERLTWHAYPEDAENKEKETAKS

**Q.** Which “Effect of biologically relevant interaction partners on HP1α-chromatin condensate formation” value does the source give for “HP1β: heterochromatin protein, biologically relevant interaction partner of HP1α-chromatin condensates” here?
**A.** dissolves condensates, making them disappear or smaller

Same assay, conditions: FIG. 7; Bioactive compound library (Selleck Chemicals), final concentration of 10 μM; H3K9me3 nucleosome arrays

**Q.** For `CC(c1cc2ccccc2s1)N(O)C(N)=O` (stereo not drawn) [Zileuton], which “Effect of bioactive small molecules on HP1α-chromatin condensates” value (shortened to “Effect of bioactive small molecules”) is on record?
**A.** dissolve condensates

**Q.** `C#Cc1cccc(Nc2ncnc3cc(OCCOC)c(OCCOC)cc23)c1` [Erlotinib] was tested. Which “Effect of bioactive small molecules” value did it give?
**A.** enhance condensate formation

**Q.** With `CS(=O)(=O)CCNCc1ccc(-c2ccc3ncnc(Nc4ccc(OCc5cccc(F)c5)c(Cl)c4)c3c2)o1` [Lapatinib ditosylate] as the compound, how does the “Effect of bioactive small molecules” value read?
**A.** mild or no effect

**Q.** `CN(C)CCN1C(=O)c2cccc3cc(N)cc(c23)C1=O` [Amonifide] was tested. Which “Effect of bioactive small molecules” value did it give?
**A.** dissolve condensates

**Q.** Which “Effect of bioactive small molecules” value does the source give for `CS(=O)(=O)c1ccc(C(=O)Nc2ccc(Cl)c(-c3ccccn3)c2)c(Cl)c1` [Vismodegib] here?
**A.** enhance condensate formation
